Test results taken from patent publication US6383490B1, “Anti-cocaine vaccine” (The Scripps Research Institute, priority 1995, dated 2002).

Legend:
[1] = Plasma cocaine levels by HPLC; assay type: in vivo, rat; conditions: 15 mg/kg i.p.
Source text: Analysis of serum immunoglobulin dissociation kinetics, antigen-binding capacity and the effect of antigen dilution (P. Minden, et al., in Handbook of Experimental Immunology. Weir, D. M., Ed., (Davis Co., Philadelphia, 1967), chap. 13, pp. 463-492; M. W. Steward et al., Antibody Affinity: Thermodynamic Aspects and Biological Significance, (CRC Press, Boca Raton, Fla., 1983); H. N. Eisen, in Methods in Medical Research. Eisen, H. N., Ed., (Yearbook Medical Publishers, Chicago, 1964), pp. 106-114; J. H. Hill, et al. Clin. Exp. Immunol. (1973): vol. 15, p 213-224.) were consistent with an in vivo antibody excess having a micromolar average binding constant. […] To complement these experiments, plasma cocaine levels were determined by HPLC according to a modified method of Benuck (M. Benuck, et al., J. Pharmacol. Exp. Ther.(1987): vol. 243, p 144-149) following a 15 mg/kg i.p. injection in a separate group of animals.

[2] = test system: cocaine-binding immunoglobulins; test: Competitive binding studies of the immune response (cocaine-binding immunoglobulins)
Source text: Consequently, inhibition of cocaine-binding immunoglobulins would not be expected in vivo from these metabolites.

COC(=O)[C@H]1[C@@H](OC(=O)c2ccccc2)C[C@@H]2CC[C@H]1N2C [cocaine, (−)-cocaine]
peak plasma concentration [1]: 5.56 ± 0.31 µM
time of peak plasma concentration [1]: 5 min
half-life ([1]; Wistar, rat, plasma, ip): 25 min

CN1[C@H]2CC[C@@H]1[C@@H](C(=O)O)[C@@H](OC(=O)c1ccccc1)C2 [benzoylecgonine]
discrimination for cocaine versus competitor ([2]; immune response to hapten 4 conjugate): greater than 900 fold

COC(=O)[C@@H]1[C@H]2CC[C@@H](C[C@@H]1O)N2C [ecgonine methyl ester]
inhibition of cocaine-binding by competitor [2]: no detectable inhibition
